One series concerns CCNK. As to the kind of experiment: NanoLuc-CCNK degradation assay (HEK293T_Nluc_CCNK-tagged cells). In kind it is cell-based. The settings on record: for NanoLuc-CCNK degradation DC50 Activity Class / DC50: 4 h incubation, HEK293T_Nluc_CCNK-tagged cells; for DC50: read-out: NanoLuc-CCNK degradation DC50 Activity Class. The gist of the method: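 HEK293T cells with nanoluciferase knocked in at the N-terminus of endogenous CCNK (CRISPR) exposed to a 10-point titration (0 to 10 μM, 1:4) in Opti-MEM I + 4% FBS for 4 h. Nano-Glo substrate then added and luminescence read as a measure of Cyclin K abundance.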

For series [1], the system named is KBM7 cells harboring a hypomorphic UBE2M mutation. The series can be described thus: KBM7 CTG EC50 assay (UBE2M knock-out). In kind it is cell-based. As to conditions: Homo sapiens, KBM-7; 72 h incubation, CellTiter-Glo; read-out: KBM7 CTG EC50 (UBE2M knock-out) Activity Class. The gist of the method:
(§1)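 Wild-type KBM7 cells, or KBM7 cells with a hypomorphic UBE2M mutation that impairs Cullin-RING ligase activity, were treated for 72 h with compounds in a 10-point, 1:4 titration (0 to 20 μM). Viability was read by CellTiter-Glo 2.0 luminescence.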
On the technique in general: In ATP-based viability assays light output follows the ATP content of the culture.

Series [2] deals with T1, DDB1-CDK12/Cyclin K ternary complex (Homo sapiens, UniProt Q16531+Q9NYV4).
T1 construct: expressed in transfected cells; host or cells: HEK293T wildtype cells, transient PEI transfection
T1 sequence (Q9NYV4 whole entry): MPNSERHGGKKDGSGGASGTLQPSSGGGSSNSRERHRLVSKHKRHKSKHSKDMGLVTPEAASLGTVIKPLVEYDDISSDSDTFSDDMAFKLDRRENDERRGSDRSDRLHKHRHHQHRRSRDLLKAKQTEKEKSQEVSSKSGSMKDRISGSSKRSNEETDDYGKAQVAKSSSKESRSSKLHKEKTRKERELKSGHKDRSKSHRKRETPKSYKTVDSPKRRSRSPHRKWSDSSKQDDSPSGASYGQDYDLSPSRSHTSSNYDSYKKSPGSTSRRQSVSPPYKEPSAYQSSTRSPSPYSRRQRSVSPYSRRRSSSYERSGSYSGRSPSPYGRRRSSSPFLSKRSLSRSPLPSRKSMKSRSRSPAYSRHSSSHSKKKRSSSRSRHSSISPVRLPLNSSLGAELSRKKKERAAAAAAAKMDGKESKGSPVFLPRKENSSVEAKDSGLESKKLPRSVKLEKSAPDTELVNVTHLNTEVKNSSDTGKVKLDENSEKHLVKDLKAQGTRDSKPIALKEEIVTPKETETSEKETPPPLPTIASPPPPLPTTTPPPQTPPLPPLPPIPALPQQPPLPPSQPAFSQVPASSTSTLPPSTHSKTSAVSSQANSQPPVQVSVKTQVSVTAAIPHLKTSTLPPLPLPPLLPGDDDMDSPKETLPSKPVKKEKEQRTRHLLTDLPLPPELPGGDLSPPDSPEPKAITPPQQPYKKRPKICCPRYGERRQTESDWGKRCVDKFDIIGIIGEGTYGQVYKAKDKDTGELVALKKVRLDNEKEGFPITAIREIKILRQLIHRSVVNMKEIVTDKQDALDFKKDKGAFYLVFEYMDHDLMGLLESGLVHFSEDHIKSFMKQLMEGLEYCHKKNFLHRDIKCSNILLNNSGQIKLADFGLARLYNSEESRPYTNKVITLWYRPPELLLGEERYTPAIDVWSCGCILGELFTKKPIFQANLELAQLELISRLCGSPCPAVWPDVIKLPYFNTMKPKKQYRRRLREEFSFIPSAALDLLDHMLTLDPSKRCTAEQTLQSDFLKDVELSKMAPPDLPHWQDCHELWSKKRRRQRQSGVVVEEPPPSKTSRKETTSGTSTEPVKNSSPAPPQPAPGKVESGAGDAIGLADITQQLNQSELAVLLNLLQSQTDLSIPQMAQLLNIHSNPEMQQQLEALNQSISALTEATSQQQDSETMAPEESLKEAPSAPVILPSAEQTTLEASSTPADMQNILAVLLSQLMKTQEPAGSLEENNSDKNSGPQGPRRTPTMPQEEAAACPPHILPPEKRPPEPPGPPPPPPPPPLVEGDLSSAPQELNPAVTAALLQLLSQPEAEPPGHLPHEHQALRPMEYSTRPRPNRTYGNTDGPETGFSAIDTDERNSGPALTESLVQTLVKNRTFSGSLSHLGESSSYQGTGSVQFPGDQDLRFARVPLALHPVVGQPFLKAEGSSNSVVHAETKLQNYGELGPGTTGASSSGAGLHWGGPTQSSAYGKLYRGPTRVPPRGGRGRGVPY
T1 sequence (Q16531 whole entry): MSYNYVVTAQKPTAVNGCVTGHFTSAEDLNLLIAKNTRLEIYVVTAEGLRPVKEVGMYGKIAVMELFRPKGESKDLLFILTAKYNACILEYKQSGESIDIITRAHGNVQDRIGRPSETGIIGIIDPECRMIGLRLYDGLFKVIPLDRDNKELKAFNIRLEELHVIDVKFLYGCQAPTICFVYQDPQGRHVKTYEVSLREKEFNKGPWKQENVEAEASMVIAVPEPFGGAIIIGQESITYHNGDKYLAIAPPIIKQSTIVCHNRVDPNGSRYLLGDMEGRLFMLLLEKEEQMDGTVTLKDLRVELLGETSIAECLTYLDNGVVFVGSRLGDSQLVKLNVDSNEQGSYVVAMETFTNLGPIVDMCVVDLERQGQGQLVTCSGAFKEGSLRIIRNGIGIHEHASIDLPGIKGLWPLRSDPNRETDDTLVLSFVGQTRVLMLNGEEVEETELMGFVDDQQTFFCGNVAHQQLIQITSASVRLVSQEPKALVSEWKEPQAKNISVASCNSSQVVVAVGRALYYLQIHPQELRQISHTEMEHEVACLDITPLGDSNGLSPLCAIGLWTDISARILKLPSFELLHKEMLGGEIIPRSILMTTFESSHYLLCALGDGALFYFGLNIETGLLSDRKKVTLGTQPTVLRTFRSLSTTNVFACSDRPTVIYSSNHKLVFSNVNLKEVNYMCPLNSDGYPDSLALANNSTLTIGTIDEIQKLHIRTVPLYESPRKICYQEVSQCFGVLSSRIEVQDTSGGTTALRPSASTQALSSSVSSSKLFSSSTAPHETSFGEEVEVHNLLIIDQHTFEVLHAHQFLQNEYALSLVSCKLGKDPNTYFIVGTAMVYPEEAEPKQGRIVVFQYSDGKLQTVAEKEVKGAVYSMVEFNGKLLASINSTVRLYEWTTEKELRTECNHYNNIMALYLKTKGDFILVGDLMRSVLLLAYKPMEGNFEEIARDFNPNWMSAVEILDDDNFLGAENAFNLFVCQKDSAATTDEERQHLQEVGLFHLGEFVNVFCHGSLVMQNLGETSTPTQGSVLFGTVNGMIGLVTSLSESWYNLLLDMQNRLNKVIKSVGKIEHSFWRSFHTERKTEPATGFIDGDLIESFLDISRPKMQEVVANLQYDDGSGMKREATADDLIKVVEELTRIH
T1 sequence (O75909 whole entry partner): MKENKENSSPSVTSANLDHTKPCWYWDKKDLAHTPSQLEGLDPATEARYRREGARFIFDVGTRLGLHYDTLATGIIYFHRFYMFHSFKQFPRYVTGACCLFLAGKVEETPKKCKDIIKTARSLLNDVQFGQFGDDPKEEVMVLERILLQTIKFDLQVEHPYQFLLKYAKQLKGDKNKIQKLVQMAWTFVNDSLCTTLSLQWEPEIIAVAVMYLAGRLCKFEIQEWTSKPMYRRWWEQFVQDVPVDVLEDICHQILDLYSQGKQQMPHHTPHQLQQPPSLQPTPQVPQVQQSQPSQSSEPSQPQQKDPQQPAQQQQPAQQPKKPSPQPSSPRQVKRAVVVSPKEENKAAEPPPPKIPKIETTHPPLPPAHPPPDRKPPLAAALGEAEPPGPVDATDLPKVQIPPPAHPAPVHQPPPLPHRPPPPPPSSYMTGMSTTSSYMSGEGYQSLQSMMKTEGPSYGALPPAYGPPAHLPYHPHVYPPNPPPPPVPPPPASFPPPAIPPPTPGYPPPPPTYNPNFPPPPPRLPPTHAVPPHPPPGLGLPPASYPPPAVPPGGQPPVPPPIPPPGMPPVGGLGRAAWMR
The series can be described thus: NanoBRET EC50 assay (HaloTag_CDK12 / NanoLuc_DDB1 in HEK293T). The settings on record: for EC50: read-out: NanoBRET EC50 Activity Class. In kind it is cell-based. Here is the method:
This assay measures the interaction/recruitment of CDK12/Cyclin K to DDB1, mechanistically validating the molecular glue pharmacology.
HEK293T wildtype cells are seeded 800 k cells/well (DMEM+10% FBS+1% PS) in a 6-well plate and allowed to attach for ˜7 hours followed by a transient transfection of 1.5 μg HaloTag_CDK12 Plasmid [Table 1] and 0.15 μg NanoLuc_DDB1 plasmid [Table 1] per well using PEI. Cells are incubated at 37° C., 5% CO2, harvested after 24 hours and resuspended in assay media (Opti-MEM Reduced serum media, no phenol red, 4% FBS, 1% PS). Cells are adjusted to 2.3×10^5 cells/ml and treated with HaloTag 618 Ligand at 100 nM or DMSO. 8000 cells are seeded per well in triplicates per compound in a white-walled 384-well plate, one negative control treated with DMSO instead of HaloTag 618 Ligand is seeded in triplicates and the 384-well plate is incubated at 37° C., 5% CO2 overnight. Compound stock solutions are prepared in Opti-MEM−/− (Opti-MEM I Reduced serum media, no phenol red) at 8× and used to treat the cells at a final concentration of 1× at 10 μM. Cells and compounds are incubated for 10 minutes at room temperature followed by addition of NanoBRET Nano-Glo substrate following manufacturer's protocols. The plate is shaken for 30 sec followed by immediate measurement of donor emission (NanoBRET Blue at 460 nm) and acceptor emission (BRET Deep Red at 647 nm) for 0.5 s.
The assay setup is identical to “NanoBRET fold change experimental setup”. Instead of treating cells in […] with 10 μM compound, a 10-point titration starting at 20 μM is performed with a dilution factor of 1:4, covering α range of 20000 nM-0.076 nM.
(In general: Bioluminescence resonance energy transfer reports proximity on the nanometre scale.)

Series [3] addresses T1, DDB1-CDK12/Cyclin K ternary complex. The series can be described thus: NanoBRET fold-change assay (HaloTag_CDK12 / NanoLuc_DDB1 in HEK293T). As to conditions: 10 μM compound, 10 minutes. The format is cell-based. The procedure, abridged: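 HEK293T cells transiently co-transfected with HaloTag_CDK12 and NanoLuc_DDB1, labelled overnight with 100 nM HaloTag 618 ligand (DMSO no-ligand control), then treated with compound at 10 μM final for 10 min at room temperature. BRET read as 460 nm donor and 647 nm acceptor emission after Nano-Glo substrate; reported as fold change.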

In the next series the test system is KBM7 cells (wild-type). The series can be described thus: KBM7 CTG EC50 assay (UBE2M wild-type). In kind it is cell-based, human. The settings on record: for EC50: Homo sapiens, KBM-7, 72 h incubation, CellTiter-Glo, read-out: KBM7 CTG EC50 (UBE2M wild-type) Activity Class; for Ratio UBE2M WT to KO: ratio of anti-proliferative activity in KBM7 wild-type versus UBE2M knock-out cells (fold). The procedure, abridged: as §1

The mark [4] stands for this setting: 10-point titration from 20 μM, HEK293T.

A word on the EC50: it is the concentration at which the effect is half-maximal. With `CC(C)c1cnc(NC(=O)Cc2cn3cc(F)ccc3n2)s1` [Example 3-4, 2-(6-fluoroimidazo[1,2-a]pyridin-2-yl)-N-(5-isopropylthiazol-2-yl)acetamide], the “NanoLuc-CCNK degradation DC50 Activity Class” value in the series on CCNK is reported as “B (0.50 μM≤DC50<0.10 μM)”. Also, the EC50 was 1000 to 10000 nM in series [1], not above 250 nM in series [2] (setting [4]) and not above 250 nM in the series on KBM7 cells (wild-type). For the same compound, the “NanoBRET fold-change Activity Class” value in series [3] is on record as “A (greater than 4-fold increase)”. The “Ratio UBE2M WT to KO” value in the series on KBM7 cells (wild-type) was found to be 82.6.

As usually defined, the DC50 is the concentration at which degradation of the target reaches its halfway point. Take `O=C(Cc1cn2cc(F)ccc2n1)Nc1ncc(C2CC2)s1` [Example 3-43, N-(5-cyclopropylthiazol-2-yl)-2-(6-fluoroimidazo[1,2-a]pyridin-2-yl)acetamide]: the “activity in NanoLuc CCNK degradation assay, in words” value in the series with CCNK is recorded as “exceptional”. The DC50 in the series with CCNK was not above 100 nM. In addition, the EC50 (in series [1]; in series [2] (setting [4]); in the series with KBM7 cells (wild-type)) was not above 250 nM each time. Moreover, the “activity in NanoBRET assay (ternary complex formation), in words” value in series [2] was “exceptional”. Further, in series [3], the “NanoBRET fold-change Activity Class” value is reported as “A (greater than 4-fold increase)”. Also, in the series on KBM7 cells (wild-type) (KBM7), the “activity in KBM7 cytotoxicity assay, in words” value is reported as “extremely potent activity”.

`COc1cc2ncn(CCC(=O)Nc3ncc(C(F)(F)F)s3)c(=O)c2cc1OC` [Example 3-64, 3-(6,7-dimethoxy-4-oxoquinazolin-3(4H)-yl)-N-(5-(trifluoromethyl)thiazol-2-yl)propanamide]: the DC50 with CCNK was not above 100 nM. The EC50 in series [1] was 500 to 1000 nM; in series [2] (setting [4]), more than 10000 nM; with KBM7 cells (wild-type) it was not above 250 nM. For the same compound, the “NanoBRET fold-change Activity Class” value in series [3] was “A (greater than 4-fold increase)”. The “Ratio UBE2M WT to KO” value with KBM7 cells (wild-type) came out at 21.9.

For `Cc1ccc2c(CC(=O)Nc3ncc(C4CC4)s3)coc2c1C` [Example 3-42, N-(5-cyclopropylthiazol-2-yl)-2-(6,7-dimethylbenzofuran-3-yl)acetamide], the DC50 in the series with CCNK was not above 100 nM. Besides, the EC50 in series [1] is not above 250 nM. Also, in series [2] (setting [4]), the “NanoBRET EC50 Activity Class” value is reported as “C (1.0 μM≤EC50<0.50 μM)”. For the same compound, the “NanoBRET fold-change Activity Class” value in series [3] is listed as “A (greater than 4-fold increase)”. Further, in the series on KBM7 cells (wild-type), the EC50 was not above 250 nM and the “Ratio UBE2M WT to KO” value was determined as 8.5.

With `Cc1cnc(NC(=O)Cc2coc3c(C)c(C)ccc23)s1` [Example 3-1, 2-(6,7-dimethylbenzofuran-3-yl)-N-(5-methylthiazol-2-yl)acetamide], the “NanoLuc-CCNK degradation DC50 Activity Class” value in the series on CCNK is “B (0.50 μM≤DC50<0.10 μM)”. Further, the EC50 in series [1] is 500 to 1000 nM; in series [2] (setting [4]), not above 250 nM; in the series on KBM7 cells (wild-type), not above 250 nM. Moreover, the “NanoBRET fold-change Activity Class” value in series [3] is “B (3-4 fold increase)”. The “Ratio UBE2M WT to KO” value in the series on KBM7 cells (wild-type) turned out to be 25.3.

Turning to `Cc1cc(NC(=O)Cc2coc3c(C)c(C)ccc23)n[nH]1` [Example 3-44, 2-(6,7-dimethylbenzofuran-3-yl)-N-(5-methyl-1H-pyrazol-3-yl)acetamide], the “NanoLuc-CCNK degradation DC50 Activity Class” value in the series on CCNK is listed as “B (0.50 μM≤DC50<0.10 μM)”. Also, the results for the EC50 (in series [1]; in series [2] (setting [4]); in the series with KBM7 cells (wild-type)) were 250 to 500 nM, not above 250 nM and not above 250 nM, respectively. Moreover, in series [3], the “NanoBRET fold-change Activity Class” value is on record as “A (greater than 4-fold increase)”. Moreover, the “Ratio UBE2M WT to KO” value with KBM7 cells (wild-type) is on record as 34.4.

For `O=C(Cc1cn2cc(F)ccc2n1)Nc1ccc(C2CC2)cn1` [Example 3-62, N-(5-cyclopropylpyridin-2-yl)-2-(6-fluoroimidazo[1,2-a]pyridin-2-yl)acetamide], the DC50 with CCNK was not above 100 nM. Also, the EC50 in series [1] is 250 to 500 nM; in series [2] (setting [4]), not above 250 nM; in the series with KBM7 cells (wild-type), not above 250 nM. In addition, the “NanoBRET fold-change Activity Class” value in series [3] is “A (greater than 4-fold increase)”. Moreover, the “Ratio UBE2M WT to KO” value in the series with KBM7 cells (wild-type) turned out to be 50.8.

Take `O=C(Cc1cn2cc(F)ccc2n1)Nc1cc(C(F)(F)F)[nH]n1` [Example 3-59, 2-(6-fluoroimidazo[1,2-a]pyridin-2-yl)-N-(5-(trifluoromethyl)-1H-pyrazol-3-yl)acetamide]: the DC50 with CCNK is more than 10000 nM. In addition, the EC50 is more than 10000 nM in series [1], more than 10000 nM in series [2] (setting [4]) and 250 to 500 nM in the series with KBM7 cells (wild-type). In addition, the “NanoBRET fold-change Activity Class” value in series [3] is “C (2-3 fold increase)”. Also, the “Ratio UBE2M WT to KO” value with KBM7 cells (wild-type) is recorded as more than 10.

Values taken from patent publication US20240132485A1, “HETEROCYCLIC CULLIN RING UBIQUITIN LIGASE COMPOUNDS AND USES THEREOF” (CEMM - FORSCHUNGSZENTRUM FÜR MOLEKULARE MEDIZIN GMBH, priority 2020, published 2024).
